Data reported in publication PMC12350126, “A novel carboxamide bromodomain inhibitor attenuates osteoarthritis via epigenetic repression of NF-κB and MAPK signaling” (Frontiers in Immunology, 2025).

How the values were obtained:
[1] = target: T1, BRD3 (BD1 + BD2) (Homo sapiens, UniProt Q15059); test: TR-FRET assay, BRD3 (BD1 + BD2); settings: lower signal = stronger binding
T1 construct: BRD3 (BD1 + BD2); purchased BPS Bioscience
Method: TR-FRET assays were conducted using kits specific for BRD2 (BD1 + BD2), BRD3 (BD1 + BD2), and BRD4 (BD1 + BD2) obtained from BPS Bioscience (San Diego, CA, USA). Bromodomain ligands were diluted in water, and master mixes were prepared by combining the diluted ligands with 1× BRD Homogeneous Assay Buffer. Thawed BRD proteins were also diluted with the same buffer. For each assay, 1.5 μL of the master mix was dispensed into wells of a microplate (Labcyte, San Jose, CA, USA), followed by the addition of 5 μL of diluted BRD protein to initiate the reaction. Plates were incubated at 20–22°C for 30–60 min. Subsequently, glutathione (GSH) acceptor beads and streptavidin-conjugated donor beads (both from PerkinElmer, Waltham, MA, USA) were diluted in 1× BRD Homogeneous Detection Buffer 1. Next, 10 μL of the acceptor bead solution was added to each well and incubated at 18°C for 30 min, followed by the addition of 10 μL of donor bead solution and a further incubation at 18°C for 15–30 min. Alpha particle counts were measured using an EnVision 2105 multimode plate reader (PerkinElmer).

[2] = target: T2, BRD2 BD1 (Homo sapiens, UniProt P25440); test: Biosensor binding kinetics assay (Octet), BRD2 BD1
T2 construct: biotinylated BRD2 BD1; biotin (biotinylated protein); made in house; host or cells: Escherichia coli BL21(DE3)
T2 sequence (P25440 74-180 limits assumed): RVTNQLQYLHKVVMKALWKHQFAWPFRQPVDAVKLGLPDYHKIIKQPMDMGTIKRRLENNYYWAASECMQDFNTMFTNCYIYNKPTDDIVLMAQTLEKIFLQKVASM
Method: (§1) Binding kinetics were assessed using the Octet® R2 system (Sartorius, Göttingen, Germany). Superstreptavidin biosensors were loaded with biotinylated BRD2 BD1, BRD2 BD2, BRD3 BD1, BRD3 BD2, BRD4 BD1, BRD4 BD2, or biotin alone (as a negative control) in PBST buffer (phosphate-buffered saline containing 0.02% Tween 20 and 5% DMSO). The sensors were then dipped into compound solutions for 10 min. To evaluate association kinetics (kon), each sensor was exposed to serial dilutions of the protein for 180 s, followed by dipping them into PBST buffer to assess dissociation kinetics (koff). For control, a separate sensor loaded with the compound was dipped into PBST alone. Competition binding assays were performed by exposing the compound-loaded sensor to mixtures of proteins and test compounds.

[3] = target: T3, BRD3 BD1 (Homo sapiens, UniProt Q15059); test: Biosensor binding kinetics assay (Octet), BRD3 BD1
T3 construct: biotinylated BRD2 BD1, BRD2 BD2, BRD3 BD1; biotin (biotinylated protein); made in house; host or cells: Escherichia coli BL21(DE3)
T3 sequence (Q15059 34-140 limits assumed): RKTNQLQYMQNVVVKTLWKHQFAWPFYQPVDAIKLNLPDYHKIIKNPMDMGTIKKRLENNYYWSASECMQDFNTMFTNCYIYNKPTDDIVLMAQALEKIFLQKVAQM
Method: as §1

[4] = target: T4, BRD4 BD1 (Homo sapiens, UniProt O60885); test: Biosensor binding kinetics assay (Octet), BRD4 BD1
T4 construct: BRD3 BD2, BRD4 BD1, BRD4 BD2; biotin (biotinylated protein); made in house; host or cells: Escherichia coli BL21(DE3)
Method: as §1

[5] = target: T5, BRD4 BD2 (Homo sapiens, UniProt O60885); test: Biosensor binding kinetics assay (Octet), BRD4 BD2
T5 construct: BRD3 BD2, BRD4 BD1, BRD4 BD2; biotin (biotinylated protein); made in house; host or cells: Escherichia coli BL21(DE3)
Method: as §1

[6] = test system: mouse primary articular chondrocytes; test: Chondrocyte viability by lactate dehydrogenase (LDH) assay; type: cell-based; settings: 12 h, NCD 0, 10, 20, 50, 100 µM, JQ1 different concentrations
[7] = test system: PGE2 production in IL-1β-treated mouse articular chondrocytes; test: PGE2 ELISA in IL-1β-treated chondrocytes; type: cell-based; settings: NCD 10, 50, 100 µM, dose-dependent
Method: NCD was supplied by Benobio Co (Gyeonggi-do, Korea), and IL‐1β was purchased from GenScript (Piscataway, NJ, USA). NCDs were dissolved in phosphate-buffered saline (PBS) for oral administration or IA injection.
PGE2 expression was determined by enzyme-linked immunosorbent assay (ELISA) using a PGE2 Immunoassay Kit (R&D Systems, Minneapolis, MN, USA). The levels of PGE2 in the conditioned medium of articular chondrocytes were determined. Collagenase activity was measured using a VICTOR X3 Microplate Reader (PerkinElmer, Waltham, MA, USA) at the excitation/emission wavelengths of 490/530 nm following the protocol provided by the manufacturer.

T1 sequence (Q15059 29-417 limits assumed): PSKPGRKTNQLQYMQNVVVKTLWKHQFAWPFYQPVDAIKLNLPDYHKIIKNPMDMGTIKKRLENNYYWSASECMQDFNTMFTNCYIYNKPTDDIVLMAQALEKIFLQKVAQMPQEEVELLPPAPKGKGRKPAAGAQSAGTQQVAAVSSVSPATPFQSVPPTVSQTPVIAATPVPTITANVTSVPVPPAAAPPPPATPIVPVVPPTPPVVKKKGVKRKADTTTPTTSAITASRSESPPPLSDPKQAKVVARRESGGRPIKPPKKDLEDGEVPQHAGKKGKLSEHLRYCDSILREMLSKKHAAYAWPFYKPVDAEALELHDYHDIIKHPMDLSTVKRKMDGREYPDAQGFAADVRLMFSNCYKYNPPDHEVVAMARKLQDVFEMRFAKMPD

CNC(=O)CC1C(=O)NCCN1Cc1ccc(-c2ccccc2-c2cccc3c2CN(C)C3=O)o1 (stereo not shown) [NCD, N-methyl-2-(1-((5-(2-(2-methyl-1-oxoisoindolin-4-yl)phenyl)furan-2-yl)methyl)-3-oxopiperazin-2-yl)acetamide]
TR-FRET value [1]: > 100000 RLU
Kd [2]: 26 nM
Kd [3]: > 1000 nM
Kd [4]: > 1000 nM
Kd [5]: > 1000 nM
Cell viability / cytotoxicity (LDH assay) [6]: no significant cytotoxic effects
PGE2 production [7]: significantly decreased
